Measured values taken from ChEMBL document CHEMBL1201862, “PubChem BioAssay data set” (2004).
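48-hour exposure; five concentrations; linearly interpolated endpoints. GI50: concentration for 50% inhibition of growth.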 Active and inactive are the calls of the source. Rule as the data show it: active = GI50 up to about 1.1 µM and inactive = higher.

Legend:
Assay in all cases: NCI-60 cell line screen, 48 h
UACC-62 = test system: UACC-62
SW-620 = test system: SW-620
SF-268 = test system: SF-268
NCI-H226 = test system: NCI-H226
M14 = test system: M14
OVCAR-5 = test system: OVCAR-5
PC-3 = test system: PC-3
KM12 = test system: KM12
HOP-92 = test system: HOP-92
CAKI-1 = test system: CAKI-1
HT-29 = test system: HT-29
NCI-H23 = test system: NCI-H23
U-251 = test system: U-251
HOP-62 = test system: HOP-62
RXF 393 = test system: RXF 393
NCI-H522 = test system: NCI-H522
HCC 2998 = test system: HCC 2998
Hs-578T = test system: Hs-578T
DU-145 = test system: DU-145

Row | Structure (SMILES) | GI50 (UACC-62) | GI50 (SW-620) | GI50 (SF-268) | GI50 (NCI-H226) | GI50 (M14) | GI50 (OVCAR-5) | GI50 (PC-3) | GI50 (KM12) | GI50 (HOP-92) | GI50 (CAKI-1) | GI50 (HT-29) | GI50 (NCI-H23) | GI50 (U-251) | GI50 (HOP-62) | GI50 (RXF 393) | GI50 (NCI-H522) | GI50 (HCC 2998) | GI50 (Hs-578T) | GI50 (DU-145)
1 | CCCCCCCCCCCCCCCCCCOCC(O)COP(=O)(O)OCC1OC(n2cc(F)c(=O)[nH]c2=O)CC1O (stereo not drawn) | 0.579 µM (active) | 13.7 µM (inactive) | 0.236 µM (active) | > 35.6 µM (inactive) | 2.96 µM (inactive) | 12.5 µM (inactive) | 3.07 µM (inactive) | 14.5 µM (inactive) | 4.02 µM (inactive) | 2.16 µM (inactive) | 10.5 µM (inactive) | 2.97 µM (inactive) | 1.75 µM (inactive) | 0.15 µM (active) | 11.9 µM (inactive) | 11.9 µM (inactive) | 0.0467 µM (active) | 14.3 µM (inactive) | 1.15 µM (inactive)
2 | N#Cc1nc2ccccc2nc1N1CCN(c2ccc([N+](=O)[O-])cc2)CC1 | > 100 µM (inactive) | > 100 µM (inactive) | > 100 µM (inactive) | > 100 µM (inactive) | > 100 µM (inactive) | > 100 µM (inactive) | > 100 µM (inactive) | > 100 µM (inactive) | > 100 µM (inactive) | > 100 µM (inactive) | > 100 µM (inactive) | > 100 µM (inactive) | > 100 µM (inactive) | > 100 µM (inactive) | > 100 µM (inactive) | > 100 µM (inactive) | > 100 µM (inactive) | > 100 µM (inactive) | > 100 µM (inactive)
3 | COc1ccc(C2NC3=C(CCCC3)C3(C#N)C(=O)N=C(N)C23C#N)cc1 (stereo not drawn) | > 100 µM (inactive) | > 100 µM (inactive) | > 100 µM (inactive) | > 100 µM (inactive) | > 100 µM (inactive) | > 100 µM (inactive) | > 100 µM (inactive) | > 100 µM (inactive) | > 100 µM (inactive) | > 100 µM (inactive) | > 100 µM (inactive) | > 100 µM (inactive) | > 100 µM (inactive) | > 100 µM (inactive) | > 100 µM (inactive) | > 100 µM (inactive) | > 100 µM (inactive) | > 100 µM (inactive) | > 100 µM (inactive)
4 | CC(C)NCCCNc1c2ccccc2nc2cccc([N+](=O)[O-])c12 | 0.0125 µM (active) | 0.00514 µM (active) | 0.00757 µM (active) | 0.0219 µM (active) | 0.0113 µM (active) | 0.0128 µM (active) | 0.00745 µM (active) | 0.0169 µM (active) | 0.00389 µM (active) | 0.029 µM (active) | 0.00202 µM (active) | 0.00156 µM (active) | 0.0143 µM (active) | 0.0279 µM (active) | 0.00427 µM (active) | 0.00161 µM (active) | 0.00406 µM (active) | 0.0383 µM (active) | 0.0065 µM (active)
5 | O=C1O[C@H]2[C@@H]3OC(=O)c4cc(O)c(O)c(O)c4-c4c(cc(O)c(O)c4O)C(=O)OC[C@H]2O[C@@H](OC(=O)c2cc(O)c(O)c(O)c2)[C@@H]3OC(=O)c2cc(O)c(O)c3c2[C@@H]2C1=CC(=O)C(O)(O)C2(O)O3 (stereo partly drawn) | 30.1 µM (inactive) | 18.5 µM (inactive) | 74.1 µM (inactive) | 23.2 µM (inactive) | 19.7 µM (inactive) | 16.4 µM (inactive) | 39.7 µM (inactive) | 22.1 µM (inactive) | 27.7 µM (inactive) | 14.1 µM (inactive) | 16.5 µM (inactive) | 33.1 µM (inactive) | 15.6 µM (inactive) | 38.8 µM (inactive) | 36.5 µM (inactive) | 28.1 µM (inactive) | 21 µM (inactive) | 40.4 µM (inactive) | 47 µM (inactive)
6 | CC/C=C\C/C=C\C/C=C\CCCCCCCC(=O)OC(COC(=O)CCCCCCCCCCCCCCCCC)COC1OC(CO)C(O)C(O)C1O (stereo not drawn) | > 25 µM (inactive) | > 25 µM (inactive) | > 25 µM (inactive) | > 25 µM (inactive) | > 25 µM (inactive) | > 25 µM (inactive) | 22.8 µM (inactive) | > 25 µM (inactive) | > 25 µM (inactive) | > 25 µM (inactive) | 22.8 µM (inactive) | > 25 µM (inactive) | > 25 µM (inactive) | > 25 µM (inactive) | > 25 µM (inactive) | 9.53 µM (inactive) | > 25 µM (inactive) | 2.59 µM (inactive) | > 25 µM (inactive)
7 | Cc1cc(C)n2nc3nc(N)c(C#N)c(-c4ccccc4)c3c2n1 | > 100 µM (inactive) | > 100 µM (inactive) | > 100 µM (inactive) | > 78.5 µM (inactive) | > 100 µM (inactive) | > 100 µM (inactive) | > 100 µM (inactive) | > 100 µM (inactive) | > 100 µM (inactive) | > 100 µM (inactive) | > 100 µM (inactive) | > 100 µM (inactive) | > 100 µM (inactive) | > 100 µM (inactive) | > 100 µM (inactive) | > 100 µM (inactive) | > 100 µM (inactive) | > 100 µM (inactive) | > 100 µM (inactive)
